Patent US20210252015A1, “CERTAIN (2S)-N-[(1S)-1-CYANO-2-PHENYLETHYL]-1,4-OXAZEPANE-2-CARBOXAMIDES FOR TREATING INFLAMMATORY BOWEL DISEASE” (Insmed Incorporated, priority 2018, published 2021)

What was measured:
[1] = system: DSS-induced colitis in C57BL/6 mice; assay: DSS-induced colitis murine study, Example 1A (endoscopy, stool consistency, body weight); assay type: in vivo; conditions: for mean endoscopy score: INS1007 1 mg/kg PO BID Day -7 to 20, scale 0-4
Method: (§1) Mice: Seventy-nine (79) male C57BL/6 mice with an average starting body weight (SEM) of 23.32 g (+1.53 g) were obtained from Charles River Laboratories (Wilmington, Mass.). Animals were acclimatized prior to the study. During this period, the animals were observed daily in order to reject any that presented in poor condition. Animals were fed with 5053 sterile rodent diet and water was provided ad libitum.
INS1007 Solutions: INS1007 was diluted with 0.5% hydroxypropylmethylcellulose in citrate buffer w/0.1% Tween 80 (pH 3.0). Solutions were stored at 4° C. INS1007 solutions were discarded after 3 days and fresh solutions were prepared.
Anti-p40 mAb solution: Anti-mouse IL-12 p40 (Clone: C17.8) obtained from BioXCell (Cat #: BE0051) was diluted with phosphate buffered saline. Solutions were stored at 4° C. Anti-mouse IL-12 p40 solutions were discarded after 7 days and fresh solutions were prepared.
DSS Induction Solution: Dextran sulfate sodium salt obtained from MP Biomedical (Cat #02160110) was diluted with water. DSS solutions were stored at room temperature.
Groups 1-4 were negative controls; groups 5-7 were treated with INS 1007 and Group 8 was treated with Anti-p40 mAb. ^i The dosing protocol for the Anti-p40 antibody is not shown in FIG. 1.
The study included three phases: a pre-treatment period (Veh/1007 Pretx in FIG. 1); DSS-induction period (DSS in FIG. 1) and a treatment period (Veh/1007 in FIG. 1). Colitis was induced in Groups 3-8 by exposure to 3% DSS Induction Solution from Day 0 to Day 5. Animals in Groups 2 and 4-7 were dosed via oral gavage (PO) twice daily (BID) from Days −7 to 20 with INS1007 Solution or vehicle, as indicated in Table 1. Animals in Group 8 were dosed via intraperitoneal (IP) injection once every third day (Q3D) from Day 0 to 18 with Anti-p40 mAb solution.
All animals were weighed daily and assessed visually for the presence of diarrhea and/or bloody stool at the time of dosing. Each mouse, under isoflurane anesthesia, underwent video endoscopy on Days 10, 14, & 21 using a small animal endoscope (Karl Storz Endoskope, Germany), to assess colitis severity. Colitis severity was scored using a 0-4 scale (0=normal; 1=loss of vascularity; 2=loss of vascularity and friability; 3=friability and erosions; 4=ulcerations and bleeding). Stool consistency was scored during endoscopy using the parameters defined in Table 2. Following endoscopy on day 21, all animals from each treatment group were sacrificed.

[2] = system: DSS-induced colitis in C57BL/6 mice; assay: DSS-induced colitis murine study, Example 1B (endoscopy, stool consistency, body weight); assay type: in vivo
Excerpt: as §1, with “Ninety-five (95)” for “Seventy-nine (79)”, “20.6” for “23.32”, “(+0.16” for “(+1.53”
Solutions: The INS1007 Solution, Anti-p40 mAb solution and DSS Induction Solution were prepared and stored as described in Example 1A. […]
All animals were weighed daily and assessed visually for the presence of diarrhea and/or bloody stool at the time of dosing. […] Colitis severity was scored using the scale described in Example 1A. Stool consistency was scored during endoscopy using the parameters defined in Table 2. […]
Animals underwent endoscopy on Days 10 and 14, in order to assess colonic inflammation. Colitis was scored visually on a five-point scale using the method described in Example 1A. Stool consistency was scored visually on a five-point scale using the method described in Example 1A. […]
To determine the statistical significance of overall differences in mean percent body weight change between groups, the area under the curve (AUC) was calculated using the trapezoidal rule transformation and is shown in the FIG. 9.

`Cn1c(=O)oc2ccc(-c3ccc(C[C@@H](C#N)NC(=O)[C@@H]4CNCCCO4)cc3)cc21` [INS1007, (2S)—N-{(1S)-1-cyano-2-[4-(3-methyl-2-oxo-2,3-dihydro-1,3-benzoxazol-5-yl)phenyl]ethyl}-1,4-oxazepane-2-carboxamide] gave a mean endoscopy score ([1]; Day 10, DSS-Vehicle control 2.67) of 2.25, a mean endoscopy score ([1]; Day 14, DSS-Vehicle control 2.79) of 1.92 and a mean endoscopy score ([1]; Day 21, DSS-Vehicle control 2.36) of 2.08. For the same molecule, the “weight loss (percentage of starting weight on Day 0)” value ([1]; INS1007 PO BID, vs DSS-vehicle control (peak loss -18.46% Day 11)) was “modestly attenuated weight loss”, the stool consistency scores ([1]; INS1007 at all three concentrations (0.1, 1, 10 mg/kg PO BID), Days 10, 14, 21, particularly Days 14 and 21) was “modest decreases in stool scores” and the mean endoscopy score ([2]; Day 14, INS1007 0.3 mg/kg PO BID (Group 3), vs vehicle control (Group 2)) was “reduced”. For the same molecule, the “body weight loss (AUC, calculated based on Day -7)” value ([2]; INS1007 1 mg/kg PO BID (Group 4), vs Group 2 (3% DSS+vehicle)) was “significantly decreased”.
